The record followed here is ChEMBL document CHEMBL1157093, “Lactonecembranoids from Croton laevigatus” (J Nat Prod, 2010).

pIC50: −log10 of the molar value.

For orientation: pIC50 means −log10 of the IC50, conventionally taken in molar units.

For the assay, the system named is HeLa. In words: Antiproliferative activity against human HeLa cells by MTT assay. Type of assay: functional, cell-based. As to conditions: for IC50: hela; call rule not given here. On the technique in general: Tetrazolium assays rely on reduction of a dye to a coloured formazan, in cell work by metabolically active cells.

Turning to `C/C1=C\CC[C@](C)(O)/C=C/[C@]2(C(C)C)CC/C(=C\CC1)C(=O)O2` (relative stereo) [LAEVIGATLACTONE C], the IC50 entry is recorded as “Not Active”.

As to `CC(C)[C@@]12/C=C/[C@@](C)(O)C/C=C/[C@](C)(O)CC/C=C(\CC1)C(=O)O2` (relative stereo) [LAEVIGATLACTONE E], the IC50 entry is on record as “Not Active”.

Consider `CC(C)[C@@]12/C=C/[C@@](C)(O)C/C=C/[C@](C)(OO)CC/C=C(\CC1)C(=O)O2` (relative stereo) [LAEVIGATLACTONE F], for which the IC50 result is reported as “Not Active”.

For the compound `C/C1=C\C=C(\C(C)C)CC/C(C(=O)O)=C\CC/C(C)=C/CC1` [NEOCROTOCEMBRANEIC ACID], the IC50 entry was “Not Active”.

In the case of `C/C1=C\CC[C@@](C)(O)/C=C/[C@]2(C(C)C)CC/C(=C\CC1)C(=O)O2` (relative stereo) [LAEVIGATLACTONE A], the IC50 result is “Not Active”.

Consider `C/C1=C\CC[C@](C)(O)/C=C/[C@]2(C(C)C)CC/C(=C/CC1)C(=O)O2` (relative stereo) [LAEVIGATLACTON B], for which the pIC50 (Homo sapiens, HeLa, read-out: IC50) is 4.42.

With `C/C1=C\CC/C(C)=C/[C@@H](O)[C@]2(C(C)C)CC/C(=C\CC1)C(=O)O2` (relative stereo) [LAEVIGATLACTONE D], the IC50 entry is listed as “Not Active”.
